pIC50: −log10 of the molar value. Calls of active or inactive are those of the source. No cut-off for these calls is given here.
Tests used:
Digitaria sanguinalis [1] = test: Phytotoxicity against Digitaria sanguinalis leaf assessed as diameter of necrosis at 10^-4 M by leaf-puncture assay; type: functional; conditions: dose 0.0001 M; 100 µM
HeLa [2] = test: Cytotoxicity against human HeLa cells assessed as reduction in cell viability at 0.5 to 10 uM after 24 hrs by MTT assay relative to control; type: functional; conditions: dose microM 0.5-10
HeLa [3] = test: Cytotoxicity against human HeLa cells assessed as reduction in cell viability after 24 hrs by MTT assay; type: functional, cell-based
Solanum lycopersicum [4] = test: Phytotoxicity against Lycopersicon esculentum leaf assessed as diameter of necrosis at 10^-3 M by leaf-puncture assay; type: functional; conditions: dose 0.001 M; 1000 µM
HaCaT = test: Cytotoxicity against human HaCaT cells assessed as reduction in cell viability at 0.5 to 10 uM after 24 hrs by MTT assay relative to control; type: functional; conditions: dose microM 0.5-10
Chenopodium album [5] = test: Phytotoxicity against Chenopodium album leaf assessed as diameter of necrosis at 10^-3 M by leaf-puncture assay; type: functional; conditions: dose 0.001 M; 1000 µM
Digitaria sanguinalis [6] = test: Phytotoxicity against Digitaria sanguinalis leaves assessed as diameter of necrosis at 10^-3 M by leaf-puncture assay; type: functional; conditions: dose 0.001 M; 1000 µM
NCI-H1299 = test: Cytotoxicity against human NCI-H1299 cells assessed as reduction in cell viability at 0.5 to 10 uM after 24 hrs by MTT assay; type: functional, cell-based; conditions: dose microM 0.5-10, time 24.0 hrs
Chenopodium album [7] = test: Phytotoxicity against Chenopodium album leaf assessed as diameter of necrosis at 10^-4 M by leaf-puncture assay; type: functional; conditions: dose 0.0001 M; 100 µM
A-431 = test: Cytotoxicity against human A-431 cells assessed as reduction in cell viability at 0.5 to 10 uM after 24 hrs by MTT assay relative to control; type: functional; conditions: dose microM 0.5-10
Solanum lycopersicum [8] = test: Phytotoxicity against Lycopersicon esculentum leaf assessed as diameter of necrosis at 10^-4 M by leaf-puncture assay; type: functional; conditions: dose 0.0001 M; 100 µM
RD = test: Cytotoxicity against human RD cells assessed as reduction in cell viability relative to control; type: functional
B16-F10 = test: Antiproliferative activity against mouse B16-F10 cells assessed as reduction in cell viability after 72 hrs by MTT assay; type: functional, cell-based; conditions: B16-F10, 72 h

With `CC(C)=C[C@H]1C[C@H](C)[C@]2(CC[C@]3(C)C[C@@H]4C(C)=CC(=O)/C4=C(\CO)C(=O)C[C@H]32)O1` the Activity (Digitaria sanguinalis [1]) was 2 mm, the Activity (HeLa [2]) was “<=50%” and the pIC50 (HeLa [3]) was 5.00. The Activity (Solanum lycopersicum [4]) was 2 mm, the Activity (HaCaT) was “<=63%” and the Activity (Chenopodium album [5]) was 3 mm. The Activity (Digitaria sanguinalis [6]) was 3 mm, the Activity (NCI-H1299) was “inactive” and the Activity (Chenopodium album [7]) was 1 mm. The Activity (A-431) was “<=72%” and the Activity (Solanum lycopersicum [8]) was 2 mm.
Compound `CC(C)=C[C@H]1C[C@H](C)[C@]2(CC[C@]3(C)C[C@H]4[C@H](C(=O)C[C@@]4(C)O)/C(C=O)=C\C[C@H]32)O1` [OPHIOBOLIN A] has an Activity (RD) of 70%, an Activity (Digitaria sanguinalis [1]) of 3 mm and a pIC50 (B16-F10) of 6.54. It also gave an Activity (Solanum lycopersicum [4]) of 3 mm, an Activity (Chenopodium album [5]) of 3 mm and an Activity (Digitaria sanguinalis [6]) of 3 mm. It also gave an Activity (Chenopodium album [7]) of 2 mm and an Activity (Solanum lycopersicum [8]) of 3 mm.
With `CC1=CC(=O)[C@H]2/C(C=O)=C\C[C@@H]3[C@](C)(CC[C@]3(O)[C@@H](C)CCCC(C)(C)O)C[C@H]12` the Activity (Digitaria sanguinalis [1]) was 2 mm, the Activity (HeLa [2]) was “<=50%” and the pIC50 (HeLa [3]) was 5.00. The Activity (Solanum lycopersicum [4]) was 2 mm, the Activity (HaCaT) was “<=63%” and the Activity (Chenopodium album [5]) was 3 mm. The Activity (Digitaria sanguinalis [6]) was 3 mm, the Activity (NCI-H1299) was “inactive” and the Activity (Chenopodium album [7]) was 0 mm. The Activity (A-431) was “<=72%” and the Activity (Solanum lycopersicum [8]) was 1 mm.
